Reference: patent publication US20230312670A1, “MYELIN OLIGODENDROCYTE GLYCOPROTEIN-SPECIFIC PEPTIDE FOR THE TREATMENT OR PREVENTION OF MULTIPLE SCLEROSIS” (LOMA LINDA UNIVERSITY, priority 2016, published 2023)
“Also recorded” adds a separate entry of the source. Marks after values point to notes of the source that are not given here.

What was measured:
[1] = test system: CD8^+ T cells; assay: IFN-γ Enzyme-linked ImmunoSpot of CD8+ T cells with C1R or C1R.Qa-1^b antigen-presenting cells; format: cell-based, K^b−/−D^b−/− mice; conditions: in the presence of C1R.Qa-1^b cells
Protocol: FIG. 1A-1C. Portion of CD8^+ T cells reactive to the pool of overlapping peptides (OLPs) covering the whole length of mouse MOG was Qa-1^b restricted. (A) A schematic view of the mouse MOG OLP library. 15mer peptides across the whole length of mouse MOG (247 amino acids) and overlapped by 11 amino acids were synthesized. A pool of the 59 OLPs (“MOG_pool”) at a concentration of 4.2 μg/ml for each peptide was then generated for stimulating CD8^+ T cells purified from K^b−/−D^b−/− mice. (B) Experimental design for Enzyme-linked ImmunoSpot assay in “C”: CD8^+ T cells purified from K^b−/−D^b−/− mice were stimulated with the MOG_pool in vitro on a weekly basis. Before being stimulated each time, the CD8^+ T cells were monitored for response to the MOG_pool, using IFN-γ Enzyme-linked ImmunoSpot, in the presence of either C1R or C1R.Qa-1^b cells as antigen presenting cells. (C) Enzyme-linked ImmunoSpot data on day 7 were shown and were representative of three independent experiments. The number at the upper left corner of each well is the absolute number of IFN-γ spot forming cells (SFCs) in the corresponding well (50,000 CD8 T cells/well).
FIG. 2A-2F. Recognition of multiple OLPs by the MOG_pool-reactive CD8^+ T cell lines depended on Qa-1^b. (A-D) MOG_pool-reactive CD8^+ T cell lines were generated as described in FIG. 1. […]

[2] = test system: MOG196-specific Qa-1^b-restricted CD8^+ T cells; assay: In vitro stimulation of CD8+ T cells with MOG196-pulsed antigen-presenting cells, Qa-1^b/MOG196 tetramer staining; format: cell-based; conditions: weekly stimulation with MOG196-pulsed APCs from K^b−/−d^b−/− or C57Bl/6 mice; beginning on day 14
Protocol: FIG. 4A-4D. MOG196 can bind to Qa-1^b and stimulate MOG196-specific Qa-1^b-restricted CD8^+ T cells. (A) MOG196 was incubated with recombinant Qa-1^b and β2 microglobulin in a protein refolding buffer at 10° C. under gentle agitation (60 rpm) for four days. The solution was separated by a size exclusion column. Peak “A” and “B” represented typical non-specific protein aggregates and correctly refolded MOG196/Qa-1^b monomer, respectively. (B) Monomers in peak B of panel “A” were further analyzed by an anion exchange chromatography. (C) Proteins in peaks “A”, “B1”, and “B2” were biotinylated and portions of the biotinylated proteins were incubated with streptavidin (SA) to examine formation of tetramers. The biotinylated proteins and corresponding tetramers were analyzed in a non-denature protein gel. Arrows show protein bands for MOG196/Qa-1^b monomers. […] The CD8^+ T cells were analyzed for binding to Qa-1^b/MOG196 tetramer at days 0, 7, and 14. […]
Multichromatic flow cytometry: Briefly, about 0.5-1×10^6 cells in a FACS buffer (PBS containing 1% FBS and 0.05% sodium azide) were stained with various fluorescence-conjugated antibodies specific for the desired cell surface proteins or with tetramers at 4′C for 30 min. The stained cells were washed twice in the FACS buffer before being analyzed on a BD FACSAria II. […]

[3] = molecular target: Qa-1^b (Mus musculus, UniProt P06339); assay: In vitro refolding of peptide with recombinant Qa-1^b protein and β2 microglobulin; format: binding; conditions: 10° C., four days; size exclusion, anion exchange, tetramer formation
Protocol: FIG. 4A-4D. MOG196 can bind to Qa-1^b and stimulate MOG196-specific Qa-1^b-restricted CD8^+ T cells. (A) MOG196 was incubated with recombinant Qa-1^b and β2 microglobulin in a protein refolding buffer at 10° C. under gentle agitation (60 rpm) for four days. The solution was separated by a size exclusion column. Peak “A” and “B” represented typical non-specific protein aggregates and correctly refolded MOG196/Qa-1^b monomer, respectively. (B) Monomers in peak B of panel “A” were further analyzed by an anion exchange chromatography. (C) Proteins in peaks “A”, “B1”, and “B2” were biotinylated and portions of the biotinylated proteins were incubated with streptavidin (SA) to examine formation of tetramers. The biotinylated proteins and corresponding tetramers were analyzed in a non-denature protein gel. Arrows show protein bands for MOG196/Qa-1^b monomers. “−”: without SA; “+”: with SA; “pk A”: peak A; “pk B1”: peak B1; “pk B2“ ” peak B2; “Std”: a protein standard. […] The CD8^+ T cells were analyzed for binding to Qa-1^b/MOG196 tetramer at days 0, 7, and 14. […]
MOG196 binds to Qa-1^b and activates MOG196—specific Qa-1^b—restricted CD8^+ T cells in vitro. […] Subsequently, the biotinylated proteins and streptavidin-conjugated tetramers were analyzed in a non-denature protein gel. […]

[4] = test system: Qa-1^b/MOG196 tetramer^+CD8^+ T cells; assay: CD122 and Ly49 expression on Qa-1^b/MOG196 tetramer+ CD8+ T cells after immunization with MOG196-pulsed DC2.4 cells; format: in vivo, C57BL/6 mice; conditions: intravenous MOG196-pulsed DC2.4 cells at days 0 and 10, analysis ten days after last immunization
Source text: FIG. 7A-7G. Immunization with DCs pulsed with MOG196 activates Qa-1^b/MOG196 tetramer^+ cells that specifically accumulate in cervical lymph nodes. (A) C57BL/6 mice (5 mice/group) were immunized with MOG35-55 for EAE. […] (B) Representative plots of Qa-1^b/MOG196tetramer^+ cells among CD8^+ T cells in cervical lymph nodes and spleens. (C) Cumulative data of Qa-1^b/MOG196tetramer^+ cells from five mice. *P<0.05. Two-way ANOVA test. (D) Representative plots of I-A^b/MOG38-49 tetramer^+ cells among CD8^− T cells in cervical lymph nodes and spleens. (E) Cumulative data of I-A^b/MOG38-49 tetramer^+ cells from five mice. *P<0.05. Two-way ANOVA test. (F) Experimental design for “G”: C57BL/6 mice were intravenously immunized with MOG196-pulsed DC2.4 cells at days 0 and 10. […]
Multichromatic flow cytometry: Briefly, about 0.5-1×10^6 cells in a FACS buffer (PBS containing 1% FBS and 0.05% sodium azide) were stained with various fluorescence-conjugated antibodies specific for the desired cell surface proteins or with tetramers at 4′C for 30 min. The stained cells were washed twice in the FACS buffer before being analyzed on a BD FACSAria II.
CD122 and Ly49 were expressed in a portion of the Qa-1^b/MOG196 tetramer+ cells. […] Expression of these two markers on the Qa-I^b/MOG196 tetramer+ cells was analyzed.

Chain of Qa-1^b (P06339 21-295 limits assumed): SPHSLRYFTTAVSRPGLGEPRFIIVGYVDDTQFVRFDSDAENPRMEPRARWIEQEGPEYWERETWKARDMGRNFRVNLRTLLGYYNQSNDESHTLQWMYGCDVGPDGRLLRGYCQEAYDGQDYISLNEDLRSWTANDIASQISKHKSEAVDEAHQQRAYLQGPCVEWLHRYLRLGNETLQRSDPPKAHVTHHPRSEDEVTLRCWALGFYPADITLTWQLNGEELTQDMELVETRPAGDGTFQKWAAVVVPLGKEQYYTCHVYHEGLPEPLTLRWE
Chain of Qa-1^b (P61769 21-119 partner): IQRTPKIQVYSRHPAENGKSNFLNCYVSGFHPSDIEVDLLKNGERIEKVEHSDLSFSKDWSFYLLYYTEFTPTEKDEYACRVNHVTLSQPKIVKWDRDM

## IICYNWLHR [MOG196]
[1]
  stimulation of an OLP105-reactive CD8^+ T cell line by truncated OLP105 peptides (IFN-γ SFCs): minimal and optimal epitope in OLP105; also recorded: highest response
[2]
  Qa-1^b/MOG196 tetramer+ cells in CD8^+ T cell lines: could be detected
[3]
  binding to Qa-1^b (refolding into MOG196/Qa-1^b/β2m monomer): could bind to Qa-1^b
[4]
  tetramer+ cells expressing CD122: about 22.6%
  tetramer+ cells expressing both CD122 and Ly49: about 7.2%
